Legend:
GP2D cells = assay: Ras cellular assay, cell proliferation GP2D; type: cell-based
Method: (§1) For example, this assay can be also used to assess selective growth inhibition of a mutant Ras protein relative to a wildtype, or relative to a different mutant Ras protein.
ASPC-1 (ATCC CRL-1682), Panc-10.05 (ATCC CRL-2547), A427, GP2d cell lines or any other cell lines comprising a G12D mutation can be used to assess Ras cellular signaling in vitro, e.g., in response to a compound described herein. For example, ASPC-1 culture medium is prepared with RPMI-1640 and 10% heat-inactivated FBS. Panc-10.05 culture medium is prepared with RPMI-1640, 10 Units/mL human recombinant insulin, and 10% FBS. A427 cell culture is prepared with RPMI-1640 and 10% heat-inactivated FBS. A CellTiter-Glo (CTG) luminescent based assay (Promega) is used to assess growth of the cells, as a measurement of the ability of the compounds herein to inhibit Ras signaling in the cells. The cells (e.g., 800 per well) are seeded in their respective culture medium in standard tissue culture-treated 384-well format plates (Falcon #08-772-116) or ultra-low attachment surface 384-well format plates (S-Bio #MS-9384UZ). The day after plating, cells are treated with a dilution series (e.g., a 9 point 3-fold dilution series) of the compounds herein (e.g., approximately 40 μL final volume per well). Cell viability can be monitored (e.g., approximately 5 days later) according to the manufacturer's recommended instructions, where the CellTiter-Glo reagent is added (e.g., approximately 10 μL), vigorously mixed, covered, and placed on a plate shaker (e.g., approximately for 20 min) to ensure sufficient cell lysis prior to assessment of luminescent signal. The IC50 values are determined using the four parameter fit. The resulting IC50 value is a measurement of the ability of the test compound to reduce cell growth of Ras-driven cells (e.g., tumor cell lines) in vitro and/or in vivo.

K-Ras G12D = biological target: T1, K-Ras G12D (Homo sapiens, UniProt P01116, G12D); assay: PPI-HTRF assay, K-Ras G12D / SOS1 interaction; type: biochemical; settings: HTRF, K-Ras G12D; read-out: PPI-HTRF-5 nM (K-Ras G12D IC50)
T1 construct: made in house; host or cells: E. coli, e.g. BL21 (DE3)
Excerpt: (§2) This assay can be also used to assess a selective inhibition or reduction of signaling output of a mutant Ras protein relative to a wildtype, or relative to a different mutant Ras protein. For example, the equilibrium interaction of wildtype Kras or K-Ras mutant (e.g., wildtype or a mutant thereof) with SOS1 (e.g., hSOS1) can be assessed as a proxy or an indication for a subject compound's ability to bind and inhibit Ras protein. HTRF assay detects from (i) a fluorescence resonance energy transfer (FRET) donor (e.g., antiGST-Europium) that is bound to GST-tagged K-Ras mutant to (ii) a FRET acceptor (e.g., anti-6His-XL665) bound to a His-tagged hSOS1.
(§3) The assay buffer can contain ˜5 mM HEPES pH 7.4, ˜150 mM NaCl, ˜1 mM DTT, 0.05% BSA and 0.0025% (v/v) Igepal. A Ras working solution is prepared in an assay buffer containing typically a suitable amount of the protein construct (e.g., GST-tagged K-Ras mutant) and the FRET donor (e.g., antiGST-Eu(K) from Cisbio, France). A SOS1 working solution is prepared in an assay buffer containing suitable amount of the protein construct (e.g., His-hSOS1) and the FRET acceptor (e.g., anti-6His-XL665 from Cisbio, France). A suitable amount of the protein construct will depend on the range of activity or range of IC50 values being detected or under investigation. For detecting IC50 within a range of 500 nM, the protein constructs of the same range of molarity can be utilized.
(§4) A fixed volume of DMSO with or without test compound is transferred into a 384-well plate. Ras working solution is added to all wells of the test plate. SOS1 working solution is added to all wells except for those that are subsequently filled the inhibitor control solution. Upon incubation for about 10 minutes or longer, the fluorescence is measured with a M1000Pro plate reader (Tecan) using HTRF detection (excitation 337 nm, emission 1: 620 nm, emission 2: 665 nm). Compounds are tested in duplicate at different concentrations (for example, 10 μM, 2.5 μM, 0.63 μM, 0.16 μM, 0.04 μM, 0.01 μM test compound). The ratiometric data (i.e., emission 2 divided by emission 1) is used to calculate IC50 values against Ras using GraphPad Prism (GraphPad software). Following this general procedure, samples are tested with or without a subject compound disclosed herein including compounds exemplified in Table 1 to assess their abilities to inhibit a mutant K-Ras relative to another K-Ras (e.g., different mutant or wildtype). Signaling output measured in terms of IC50 values can be obtained, a ratio of IC50 against one mutant relative to another mutant can be calculated. For instance, a selective reduction of K-Ras G12D signaling output can be evidenced by a ratio greater than one. In particular, a selective reduction of K-Ras G12D signaling relative to K-Ras WT signaling is evidenced if the ratio of IC50 (against K-Ras WT) to IC50 (against K-Ras G12D) is greater than 1.

K-Ras G12S = biological target: T2, K-Ras G12S (Homo sapiens, UniProt P01116, G12S); assay: PPI-HTRF assay, K-Ras G12S / SOS1 interaction; type: biochemical; settings: read-out: PPI-HTRF-5 nM (K-Ras G12S IC50)
T2 construct: made in house; host or cells: E. coli, e.g. BL21 (DE3)
Excerpt: as §2, §3, §4

K-Ras G12V = biological target: T3, K-Ras G12V (Homo sapiens, UniProt P01116, G12V); assay: PPI-HTRF assay, K-Ras G12V / SOS1 interaction; type: biochemical; settings: HTRF, K-Ras G12V; read-out: PPI-HTRF-5 nM (K-Ras G12V IC50)
T3 construct: made in house; host or cells: E. coli, e.g. BL21 (DE3)
Excerpt: as §2, §3, §4

wildtype K-Ras = biological target: T4, wildtype K-Ras (Homo sapiens, UniProt P01116); assay: PPI-HTRF assay, wildtype K-Ras / SOS1 interaction; type: biochemical; settings: HTRF, K-Ras wt; read-out: PPI-HTRF-5 nM (K-Ras wt IC50)
T4 construct: made in house; host or cells: E. coli, e.g. BL21 (DE3)
Excerpt: as §2, §3, §4

SW620 cells = assay: Ras cellular assay, cell proliferation SW620; type: cell-based; settings: Homo sapiens, SW-620
Excerpt: as §1

T1 sequence (P01116 1-188 isoform P01116-2 G12D): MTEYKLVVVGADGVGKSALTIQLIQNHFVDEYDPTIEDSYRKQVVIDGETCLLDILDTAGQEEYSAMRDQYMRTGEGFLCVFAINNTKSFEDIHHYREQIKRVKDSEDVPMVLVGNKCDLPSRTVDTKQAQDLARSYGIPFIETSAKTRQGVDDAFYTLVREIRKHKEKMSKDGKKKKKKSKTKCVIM
T2 sequence (P01116 1-188 isoform P01116-2 G12S): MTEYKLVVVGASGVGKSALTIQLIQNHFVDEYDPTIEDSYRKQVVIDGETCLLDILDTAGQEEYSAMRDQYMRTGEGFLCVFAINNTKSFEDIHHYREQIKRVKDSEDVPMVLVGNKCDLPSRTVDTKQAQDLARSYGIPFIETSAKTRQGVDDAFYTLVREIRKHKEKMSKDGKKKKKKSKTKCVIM
T4 sequence (P01116 1-188 isoform P01116-2): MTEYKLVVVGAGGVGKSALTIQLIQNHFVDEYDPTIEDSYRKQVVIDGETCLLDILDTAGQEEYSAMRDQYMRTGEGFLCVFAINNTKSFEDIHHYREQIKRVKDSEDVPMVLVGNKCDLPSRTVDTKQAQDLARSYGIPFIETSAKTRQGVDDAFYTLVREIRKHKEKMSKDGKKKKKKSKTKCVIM
T3 sequence (P01116 1-188 isoform P01116-2 G12V): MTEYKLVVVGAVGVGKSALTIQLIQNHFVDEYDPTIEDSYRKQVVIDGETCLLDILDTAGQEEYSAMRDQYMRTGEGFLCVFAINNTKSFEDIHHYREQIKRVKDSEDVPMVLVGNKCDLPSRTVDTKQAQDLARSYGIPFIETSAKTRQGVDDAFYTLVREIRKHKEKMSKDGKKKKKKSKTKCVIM

| SMILES | IC50 (K-Ras G12D) [µM] | IC50 (K-Ras G12S) [µM] | IC50 (K-Ras G12V) [µM] | IC50 (wildtype K-Ras) [µM] | IC50 (SW620 cells) [µM] | IC50 (GP2D cells) [µM] |
| --- | --- | --- | --- | --- | --- | --- |
| N#Cc1c(N)sc2c(F)ccc(-c3c(Cl)c4c5c(nc(OC[C@@]67CCCN6C[C@H](F)C7)nc5c3F)N3CCC[C@@H]3CCO4)c12 [compound 183, 2-amino-4-((13aR)-10-chloro-8-fluoro-6-(((2R,7aS)-2-fluorotetrahydro-1H-pyrrolizin-7a(5H)-yl)methoxy)-1,2,3,12,13,13a-hexahydropyrrolo[1′,2′:5,6][1,5]oxazocino [4,3,2-de]quinazolin-9-yl)-7-fluorobenzo[b]thiophene-3-carbonitrile] | – | – | – | – | – | < 5 |
| N#Cc1c(N)sc2c(F)ccc(-c3c(Cl)c4c5c(nc(OC[C@@]67CCCN6C[C@H](F)C7)nc5c3F)N3C[C@H](NC(=O)[C@H]5CN5)C[C@H]3CO4)c12 [compound 111, (2R)-N-((2R,12aS)-9-(2-amino-3-cyano-7-fluorobenzo[b]thiophen-4-yl)-10-chloro-8-fluoro-6-(((2R,7aS)-2-fluorotetrahydro-1H-pyrrolizin-7a(5H)-yl)methoxy)-2,3,12,12a-tetrahydro-1H-pyrrolo[2′,1′:,4][1,4]oxazepino[5,6,7-de]quinazolin-2-yl)aziridine-2-carboxamide] | < 5 | < 5 | < 5 | < 5 | > 5 | > 5 |
| N#CCC1CCN2c3nc(OC[C@@]45CCCN4C[C@H](F)C5)nc4c(F)c(-c5ccc(F)c6sc(N)c(C#N)c56)c(Cl)c(c34)OCC2C1 (single isomer, unassigned) [compound 162] | – | – | – | – | – | < 5 |
| N#Cc1c(N)sc2c(F)ccc(-c3c(Cl)c4c5c(nc(OC[C@@]67CCCN6C[C@H](F)C7)nc5c3F)N3CC5(CCN5C(=O)n5cncn5)CC3CO4)c12 (stereo partly drawn) [compound 190, 2-amino-4-(6′-chloro-4′-fluoro-2′-(((2R,7aS)-2-fluorotetrahydro-1H-pyrrolizin-7a(5H)-yl)methoxy)-1-(1H-1,2,4-triazole-1-carbonyl)-8a′,9′-dihydro-8′H,11′H-spiro[azetidine-2,10′-pyrrolo[2′,1′:3,4][1,4]oxazepino[5,6,7-de]quinazolin]-5′-yl)-7-fluorobenzo[b]thiophene-3-carbonitrile] | < 5 | – | – | – | – | < 5 |
| CN1c2nc(OC[C@@]34CCCN3C[C@H](F)C4)nc3c(F)c(-c4ccc(F)c5sc(N)c(C#N)c45)c(Cl)c(c23)OCC2OCCCC21 (stereo partly drawn) [compound 199, 2-amino-4-(6-chloro-4-fluoro-2-(((2R,7aS)-2-fluorotetrahydro-1H-pyrrolizin-7a(5H)-yl)methoxy)-13-methyl-8,8a,11,12,12a,13-hexahydro-10H-pyrano[3′,2′:6,7][1,5]oxazocino[4,3,2-de]quinazolin-5-yl)-7-fluorobenzo[b]thiophene-3-carbonitrile] | < 5 | < 5 | < 5 | < 5 | – | – |
| CN1c2nc(OC[C@@]34CCCN3C[C@H](F)C4)nc3c(F)c(-c4ccc(F)c5sc(N)c(C#N)c45)c(Cl)c(c23)OC2CN(C(=O)C(F)F)CC21 (stereo partly drawn) [compound 147, 2-amino-4-(6-chloro-9-(2,2-difluoroacetyl)-4-fluoro-2-(((2R,7aS)-2-fluorotetrahydro-1H-pyrrolizin-7a(5H)-yl)methoxy)-11-methyl-7a,8,9,10,10a,11-hexahydropyrrolo[3′,4′:2,3][1,4]oxazepino [5,6,7-de]quinazolin-5-yl)-7-fluorobenzo[b]thiophene-3-carbonitrile] | < 5 | < 5 | < 5 | < 5 | – | – |
| N#Cc1c(N)sc2c(F)ccc(-c3c(Cl)c4c5c(nc(OC[C@@]67CCCN6C[C@H](F)C7)nc5c3F)N3C[C@@H](N)C[C@H]3CO4)c12 [compound 191, 2-amino-4-((8aS,10S)-10-amino-6-chloro-4-fluoro-2-(((2R,7aS)-2-fluorotetrahydro-1H-pyrrolizin-7a(5H)-yl)methoxy)-8a,9,10,11-tetrahydro-8H-pyrrolo[2′,1′:3,4][1,4]oxazepino[5,6,7-de]quinazolin-5-yl)-7-fluorobenzo[b]thiophene-3-carbonitrile] | < 5 | < 5 | < 5 | < 5 | – | – |

The next lines start with results.

| IC50 (K-Ras G12D) [µM] | IC50 (K-Ras G12S) [µM] | IC50 (K-Ras G12V) [µM] | IC50 (wildtype K-Ras) [µM] | IC50 (SW620 cells) [µM] | SMILES | IC50 (GP2D cells) [µM] |
| --- | --- | --- | --- | --- | --- | --- |
| < 5 | – | – | – | – | N#Cc1c(N)sc2c(F)ccc(-c3c(Cl)c4c5c(nc(OC[C@@]67CCCN6C[C@H](F)C7)nc5c3F)N3CCC(C#N)CC3CO4)c12 (single isomer, unassigned) [compound 211] | < 5 |
| – | – | – | – | > 5 | CC(O)C1C[C@H]2CCCN2c2nc(OC[C@@]34CCCN3C[C@H](F)C4)nc3c(F)c(-c4ccc(F)c5sc(N)c(C#N)c45)c(Cl)c(c23)O1 (single isomer, unassigned) [compound 135] | < 5 |
| < 5 | – | – | – | – | N#Cc1c(N)sc2c(F)ccc(-c3c(Cl)c4c5c(nc(OCC67CCCN6C[C@H](F)C7)nc5c3F)N3CCCCC3CCO4)c12 (single isomer, unassigned) [compound 184] | < 5 |
| < 5 | – | – | – | < 5 | N#Cc1c(N)sc2c(F)ccc(-c3c(Cl)c4c5c(nc(OC[C@@]67CCCN6C[C@H](F)C7)nc5c3F)N3CCC[C@@H]3CC(C(F)F)O4)c12 (single isomer, unassigned) [compound 212] | < 5 |
| < 5 | < 5 | < 5 | < 5 | – | N#Cc1c(N)sc2c(F)ccc(-c3c(Cl)c4c5c(nc(OC[C@@]67CCCN6C[C@H](F)C7)nc5c3F)N3CCC(C(F)F)CC3CO4)c12 (stereo partly drawn) [compound 194, 2-amino-4-(6-chloro-10-(difluoromethyl)-4-fluoro-2-(((2R,7aS)-2-fluorotetrahydro-1H-pyrrolizin-7a(5H)-yl)methoxy)-8,8a,9,10,11,12-hexahydropyrido[2′,1′:3,4][1,4]oxazepino [5,6,7-de]quinazolin-5-yl)-7-fluorobenzo[b]thiophene-3-carbonitrile] | – |
